Reference: patent publication US10578610B2, “Peptide regulators of mitochondrial fusion and methods of use” (priority 2016, dated 2020)
Ends that are not written are not given here.

Key:
[1] = system: mice subjected to cerebral ischemia; assay: Temporary middle cerebral artery (MCA) occlusion followed by reperfusion; format: in vivo
Experimental: Studies were done to study the effects of TetherX-1 (SEQ ID NO:24) administration on cerebral tissue damage in mice in which ischemia was induced. In this blinded and placebo-controlled studies, 40 mice were subjected to temporary (40 minutes) middle cerebral artery (MCA) occlusion followed by reperfusion for 24 hours. Brains were removed and analyzed for direct and indirect infarct area and volume. […] Moreover, TetherX-1 administration reduced cerebral deficit (FIG. 20) and cerebral swelling (FIG. 21).

[2] = system: cultured rat motor neurons infected with adeno-Mfn2 K109A; assay: Motor neurons infected with adeno-Mfn2 K109A; format: cell-based; details: 1 μM for 24 hours vs TAT control
Experimental: The efficacy of TAT-367-384Gly to correct mitochondrial pathology induced by a GTPase-defective Mfn2 mutant was examined in the CMT2A-relevant cell type, motor neurons. Motor neurons were isolated from E17 Sprague-Dawley rats and cultured as described in Wang et al., 2013, Hum Mol Genet 22:4706-4719. After 10 days in culture, neurons were infected twice, 8 hours apart, with 50 MOI of adenoviral WT-Mfn2 or K109A Mfn2 and treated with 1 μM TAT-367-384 Gly or control TAT peptide for 24 hours. Mitochondria of formalin-fixed nerons were labeled with anti-TOM20 (Santa Cruz Biotechnology). Neurons were stained with Hoechst 33342. Laser confocal imaging using a 63× oil objective was used to identify isolated mitochondria for determination of aspect ratio.
Representative anti-TOM20/Hoechst images of formalin-fixed cultured neurons infected with adeno-Mfn2K109A (FIG. 15A) or adeno-WT Mfn2 (FIG. 15B) and treated for 24 h with 1 μM TAT control (Ctrl) or TAT-367-384Gly minipeptide. Scale bars are 10 microns. N=20-23 per treatment group; *=P<0.05 vs Ctrl (Student's t-test).

[3] = system: hippocampal and cortical neurons carrying Mfn2 T105M fl/st; assay: Hippocampal and cortical neurons with induced Mfn2 T105M; format: cell-based, mouse; details: Mfn2 T105M induced by adeno-Cre; 1 μM for 24 hours
Experimental: Finally, to test the efficacy of fusion promotion by conformational manipulation in a model of a naturally-occurring human CMT2A mutation, hippocampal and cortical neurons were cultured from mouse pups carrying the conditional Mfn2 T105M fl/st expression allele.
Hippocampal and cortical neurons were prepared from individual P0-P1 mouse pups using a modification of methods described for rat neuronal culture (Mennerick et al., 1995, J Neurophysiol, 73:320-332). Mouse pups were genotyped after the fact to determine presence or absence of the MFN2*T105M transgene; neurons derived from mice lacking the transgene were designated as normal controls. […] Immunoblot of Mfn2 expression in T105M fl/st cortical neurons 72 h after adeno-Cre or adeno-β-gal (Ctrl) is shown in FIG. 16B with quantitative data to the right (n=4). […]
Merged live confocal images of cultured neurons without (no Cre) and with (+Cre) Mfn2 T105M induction, and in Mfn2 T105M-induced neurons 24 h after addition of 1 μM TAT-367-384Gly are shown in FIG. 16C. […] Quantitative data are provided in FIG. 16E; each point is result from one of 3 independently-established Mfn2 T105M neuronal cultures, each with 3 biological replicates of ˜20 neurons. *=P<0.01 vs no Cre; #=P<0.01 vs T105M+Cre.

[4] = 3 mg/kg intravenously 1 hour before ischemia and immediately prior to reperfusion, vs vehicle
[5] = 3 mg/kg intravenously, vs vehicle

| Sequence | direct infarct area ([1]; 3 mg/kg intravenously 1 hour before ischemia and immediately prior to reperfusion, 40 minutes MCA occlusion, reperfusion 24 hours, vs vehicle (water)) | direct infarct volume [1, 4] | indirect infarct area [1, 4] | indirect infarct volume [1, 4] | cerebral deficit [1, 5] | cerebral swelling [1, 5] | mitochondrial fragmentation (aspect ratio) [2] | neuronal mitochondrial dysmorphology with fragmentation, partial depolarization and clumping [3] |
| --- | --- | --- | --- | --- | --- | --- | --- | --- |
| QDRLKFIDKQGELLAQDYKLRGGYGRKKRRQRRR [TAT-398-418Gly] | decrease | decrease | decrease | decrease | reduced | reduced | – | – |
| QIAEAVRGIMDSLHMAARGGYGRKKRRQRRR [TAT-367-384Gly] | – | – | – | – | – | – | fully normalized | largely reversed these abnormalities |
